Data taken from ChEMBL document CHEMBL1221299, “Unnatural enantiomer of chaetocin shows strong apoptosis-inducing activity through caspase-8/caspase-3 activation” (Bioorg Med Chem Lett, 2010).
Activity calls are given as the source filed them. The rule behind the calls is not given here.

Assays:
Format in all cases: functional, cell-based
HL-60 [1] = assay: Induction of apoptosis in human HL60 cells assessed as reduction of cell viability at up to 30 uM after 4 hrs by alamar blue assay
HL-60 [2] = assay: Induction of apoptosis in human HL60 cells assessed as reduction of cell viability after 4 hrs by alamar blue assay
HL-60 [3] = assay: Induction of apoptosis in human HL60 cells assessed as nuclear fragmentation at 0.3 uM after 4 hrs using DAPI/PI by confocal laser microscopy analysis
HL-60 [4] = assay: Induction of apoptosis in human HL60 cells assessed as necrotic cell death at 30 uM after 4 hrs using DAPI/PI by confocal laser microscopy analysis
HL-60 [5] = assay: Induction of apoptosis in human HL60 cells assessed as DNA ladder formation at 0.3 uM after 4 hrs by DNA electrophoresis
HL-60 [6] = assay: Induction of apoptosis in human HL60 cells assessed as increase of cellular ROS level
HL-60 [7] = assay: Induction of apoptosis in human HL60 cells assessed as activation of caspase 3 at 0.3 uM after 2 hrs by Western blot analysis
HL-60 [8] = assay: Induction of apoptosis in human HL60 cells assessed as activation of caspase 3 at 0.3 uM after 2 hrs by Western blot analysis in presence of caspase 9 inhibitor […]
HL-60 [9] = assay: Induction of apoptosis in human HL60 cells assessed as DNA ladder formation at 30 uM after 4 hrs by DNA electrophoresis
HL-60 [10] = assay: Induction of apoptosis in human HL60 cells assessed as activation of caspase 3 at 0.3 uM after 2 hrs by Western blot analysis in presence of caspase inhibitor Z-VAD
HL-60 [11] = assay: Induction of apoptosis in human HL60 cells at 0.3 uM in presence of caspase 8 inhibitor Z-IETD
HL-60 [12] = assay: Induction of apoptosis in human HL60 cells at 0.3 uM in presence of caspase 9 inhibitor […]
HL-60 [13] = assay: Induction of apoptosis in human HL60 cells assessed as activation of caspase 3 at 0.3 uM after 2 hrs by Western blot analysis in presence of caspase 8 inhibitor Z-IETD
HL-60 [14] = assay: Potentiation of FAS-ligand-induced apoptosis in human HL60 cells at 30 uM
HL-60 [15] = assay: Potentiation of TNF-alpha-ligand-induced apoptosis in human HL60 cells at 30 uM

SMILES | Activity (HL-60 [1]) | Activity (HL-60 [2]) | Activity (HL-60 [3]) | Activity (HL-60 [4]) | Activity (HL-60 [5]) | Activity (HL-60 [6]) | Activity (HL-60 [7]) | Activity (HL-60 [8]) | Activity (HL-60 [9]) | Activity (HL-60 [10]) | Activity (HL-60 [11]) | Activity (HL-60 [12]) | Activity (HL-60 [13]) | Activity (HL-60 [14]) | Activity (HL-60 [15])
CN1C(=O)[C@H]2C[C@]3([C@]45C[C@@H]6C(=O)N(C)[C@H](CO)C(=O)N6[C@H]4Nc4ccccc45)c4ccccc4N[C@@H]3N2C(=O)[C@H]1CO | inactive | – | – | – | – | – | – | – | – | – | – | – | – | – | –
CN1C(=O)[C@@]23C[C@]4([C@]56C[C@@]78SS[C@@](CO)(C(=O)N7[C@H]5Nc5ccccc56)N(C)C8=O)c5ccccc5N[C@@H]4N2C(=O)[C@]1(CO)SS3 | – | Dose-dependent effect | Active | Active | inactive | inactive | Active | – | – | – | – | – | – | – | –
CN1C(=O)[C@]23C[C@@]4([C@@]56C[C@]78SS[C@](CO)(C(=O)N7[C@@H]5Nc5ccccc56)N(C)C8=O)c5ccccc5N[C@H]4N2C(=O)[C@@]1(CO)SS3 | – | – | Active | Active | Active | inactive | Active | Active | inactive | inactive | inactive | Active | inactive | inactive | inactive
